In patent publication US11414416B1, “Compounds and uses thereof” (Foghorn Therapeutics Inc., priority 2019, dated 2022):

These compounds were tested against Nanoluciferase-BRD9 fusion protein (Homo sapiens (Human), UniProt Q9H8M2) (assay: SYO1 BRD9 NanoLuc degradation assay). Conditions: Table 5A; SYO-1 cells expressing 3×FLAG-NLuc-BRD9, 6 hours; read-out: SYO1 BRD9-NanoLuc degradation IC50.
Type: cell-based
Summary of the method: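 Degradation was read as loss of nanoluciferase signal (Nano-Glo) after 6 h compound exposure in a stable SYO-1 line carrying 3×FLAG-NLuc-BRD9 (8000 cells/well). Normalised between DMSO (high) and a 1 μM known BRD9 degrader (low).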

Sequence of Nanoluciferase-BRD9 fusion protein (Q9H8M2 whole entry, the tested form may be a part): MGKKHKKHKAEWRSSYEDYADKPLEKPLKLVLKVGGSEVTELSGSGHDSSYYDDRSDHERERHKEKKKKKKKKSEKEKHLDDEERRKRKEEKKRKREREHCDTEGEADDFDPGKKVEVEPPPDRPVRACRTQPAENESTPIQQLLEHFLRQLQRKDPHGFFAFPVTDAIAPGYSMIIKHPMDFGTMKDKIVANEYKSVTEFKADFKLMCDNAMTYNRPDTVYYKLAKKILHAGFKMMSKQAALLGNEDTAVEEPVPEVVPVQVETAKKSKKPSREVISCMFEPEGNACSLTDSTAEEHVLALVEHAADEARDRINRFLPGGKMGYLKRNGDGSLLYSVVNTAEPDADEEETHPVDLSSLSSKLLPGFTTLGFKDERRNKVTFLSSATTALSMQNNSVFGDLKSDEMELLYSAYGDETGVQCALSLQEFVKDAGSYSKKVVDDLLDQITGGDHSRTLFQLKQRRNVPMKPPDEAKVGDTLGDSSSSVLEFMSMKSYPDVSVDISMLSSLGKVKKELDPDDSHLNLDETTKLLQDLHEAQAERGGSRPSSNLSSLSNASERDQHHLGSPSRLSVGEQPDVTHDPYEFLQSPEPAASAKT

Row | SMILES | DC50 [nM]
1 | COc1cc(-c2cn(C)c(=O)c3cnccc23)cc(OC)c1CN1CC2(CC(CCOc3ccc4c(c3)C(=O)N(C3CCC(=O)NC3=O)C4=O)C2)C1 (stereo not shown) [Compound D48, 5-(2-(2-(2,6-dimethoxy-4-(2-methyl-1-oxo-1,2-dihydro-2,7-naphthyridin-4-yl)benzyl)-2-azaspiro[3.3]heptan-6-yl)ethoxy)-2-(2,6-dioxopiperidin-3-yl)isoindoline-1,3-dione formic acid] | 10 to 100
2 | COc1cc(-c2cn(C)c(=O)c3cnccc23)cc(OC)c1CN1CC(N)(C(=O)NCCCCCCCCNc2cccc3c2C(=O)N(C2CCC(=O)NC2=O)C3=O)C1 (stereo not shown) [Compound D17, 3-amino-1-[[2,6-dimethoxy-4-(2-methyl-1-oxo-1,2-dihydro-2,7-naphthyridin-4-yl)phenyl]methyl]-N-(8-[[2-(2,6-dioxopiperidin-3-yl)-1,3-dioxo-2,3-dihydro-1H-isoindol-4-yl]amino]octyl)azetidine-3-carboxamide] | < 10
3 | COc1cc(-c2cn(C)c(=O)c3cnccc23)cc(OC)c1CN1CC(N(C)Cc2cccc3c2C(=O)N(C2CCC(=O)NC2=O)C3=O)C1 (stereo not shown) [Compound D28, 4-(((1-(2,6-dimethoxy-4-(2-methyl-1-oxo-1,2-dihydro-2,7-naphthyridin-4-yl)benzyl)azetidin-3-yl)(methyl)amino)methyl)-2-(2,6-dioxopiperidin-3-yl)isoindoline-1,3-dione] | 100 to 1000

Same assay, conditions: Table 5B; SYO-1 cells expressing 3×FLAG-NLuc-BRD9, 6 hours; read-out: SYO1 BRD9-NanoLuc degradation IC50

Row | DC50 [nM] | SMILES
4 | < 10 | COc1cc(-c2cn(C)c(=O)c3cnccc23)cc(OC)c1CN1CCC(n2cc(COc3ccc4c(c3)C(=O)N(C3CCC(=O)NC3=O)C4=O)nn2)CC1 (stereo not shown) [Compound D289]
5 | < 10 | COc1cc(-c2cn(C)c(=O)c3cnccc23)cc(OC)c1CN1CC2(CCN(C(=O)C#Cc3ccc4c(c3)C(=O)N(C3CCC(=O)NC3=O)C4=O)C2)C1 (stereo not shown) [Compound D239]
6 | 10 to 100 | COc1cc(-c2cn(C)c(=O)c3cnccc23)cc(OC)c1CN1CC2(CCN(CCCC#Cc3ccc4c(c3)C(=O)N(C3CCC(=O)NC3=O)C4=O)CC2)C1 (stereo not shown) [Compound D212]
7 | < 10 | COc1cc(-c2cn(C)c(=O)c3cnccc23)cc(OC)c1CN(C)CCCCCCCCNc1cccc2c1CN(C1CCC(=O)NC1=O)C2=O (stereo not shown) [DD4]
8 | < 10 | COc1cc(-c2cn(C)c(=O)c3cnccc23)cc(OC)c1CN1CCC2C(C1)CN2CCCC#Cc1ccc2c(c1)C(=O)N(C1CCC(=O)NC1=O)C2=O (stereo not shown) [Compound D310]
9 | < 10 | COc1cc(-c2cn(C)c(=O)c3cnccc23)cc(OC)c1CN1CCC2(CCC(C(=O)CCC#Cc3ccc4c(c3)C(=O)N(C3CCC(=O)NC3=O)C4=O)C2)CC1 (stereo not shown) [Compound D220]
10 | < 10 | COc1cc(-c2cn(C)c(=O)c3cnccc23)cc(OC)c1CN1CCC(n2cc([C@@H](C)Oc3ccc4c(c3)C(=O)N(C3CCC(=O)NC3=O)C4=O)nn2)CC1 (stereo partly shown) [Compound D319]
11 | < 10 | COc1cc(-c2cn(C)c(=O)c3cnccc23)cc(OC)c1CN(C)CCCCNC1CC2(C1)CN(c1ccc3c(c1)C(=O)N(C1CCC(=O)NC1=O)C3=O)C2 (stereo not shown) [Compound D250]
12 | < 10 | COc1cc(-c2cn(C)c(=O)c3cnccc23)cc(OC)c1CN1CCC2(C1)CN(C(=O)C#Cc1ccc3c(c1)C(=O)N(C1CCC(=O)NC1=O)C3=O)C2 (stereo not shown) [Compound D241]
13 | < 10 | COc1cc(-c2cn(C)c(=O)c3cnccc23)cc(OC)c1CN1CC(N2CCN(c3ccc4c(c3)C(=O)N(C3CCC(=O)NC3=O)C4=O)CC2)C1 (stereo not shown) [Compound D327]
14 | < 10 | COc1cc(-c2cn(C)c(=O)c3cnccc23)cc(OC)c1CN(C)C(=O)CCCCNC1CC2(C1)CC(Oc1ccc3c(c1)C(=O)N(C1CCC(=O)NC1=O)C3=O)C2 (stereo not shown) [Compound D260]
15 | < 10 | COc1cc(-c2cn(C)c(=O)c3cnccc23)cc(OC)c1CN1CC2(CN(CCCC#Cc3ccc4c(c3)C(=O)N(C3CCC(=O)NC3=O)C4=O)C2)C1 (stereo not shown) [Compound D215]
16 | < 10 | COc1cc(-c2cn(C)c(=O)c3cnccc23)cc(OC)c1CN(C)CCCCNC1CC12CCN(c1ccc3c(c1)C(=O)N(C1CCC(=O)NC1=O)C3=O)C2 (stereo not shown) [Compound D252]
17 | 10 to 100 | COc1cc(-c2cn(C)c(=O)c3cnccc23)cc(OC)c1CN1CC(CC(=O)N[C@@H]2C[C@@]23CCN(c2ccc4c(c2)C(=O)N(C2CCC(=O)NC2=O)C4=O)C3)C1 (stereo partly shown) [Compound D232]
18 | < 10 | COc1cc(-c2cn(C)c(=O)c3cnccc23)cc(OC)c1CN1CCC(n2cc(CN3CC(Oc4ccc5c(c4)C(=O)N(C4CCC(=O)NC4=O)C5=O)C3)nn2)CC1 (stereo not shown) [Compound D280]
19 | 10 to 100 | COc1cc(-c2cn(C)c(=O)c3cnccc23)cc(OC)c1CN(C)CC(=O)NCCN1Cc2cc3c(cc2C1)C(=O)N(C1CCC(=O)NC1=O)C3=O (stereo not shown) [DD6]
20 | < 10 | COc1cc(-c2cn(C)c(=O)c3cnccc23)cc(OC)c1CN1CCC2(C1)CN(C(=O)CCC#Cc1ccc3c(c1)C(=O)N(C1CCC(=O)NC1=O)C3=O)C2 (stereo not shown) [Compound D269]
21 | < 10 | COc1cc(-c2cn(C)c(=O)c3cnccc23)cc(OC)c1CN(C)C(=O)CCCCN1CCCC2(CC(Oc3ccc4c(c3)C(=O)N([C@@H]3CCC(=O)NC3=O)C4=O)C2)C1 (stereo partly shown) [Compound D261]
22 | 10 to 100 | COc1cc(-c2cn(C)c(=O)c3cnccc23)cc(OC)c1CN1CC(CC(=O)N2CC3(CCN(c4ccc5c(c4)C(=O)N(C4CCC(=O)NC4=O)C5=O)CC3)C2)C1 (stereo not shown) [Compound D190]
23 | < 10 | COc1cc(-c2cn(C)c(=O)c3cnccc23)cc(OC)c1CN(C)CCCCNC1CC2(C1)CC(Oc1ccc3c(c1)C(=O)N(C1CCC(=O)NC1=O)C3=O)C2 (stereo not shown) [Compound D257]
24 | 10 to 100 | COc1cc(-c2cn(C)c(=O)c3cnccc23)cc(OC)c1CN(C)CCCCNC1CCC12CN(c1ccc3c(c1)C(=O)N(C1CCC(=O)NC1=O)C3=O)C2 (stereo not shown) [Compound D245]

The next lines start with the compound.

Row | SMILES | DC50 [nM]
25 | COc1cc(-c2cc(C)c(=O)n(C)n2)cc(OC)c1CN1CCC2(CC1)CN(c1ccc3c(c1)C(=O)N(C1CCC(=O)NC1=O)C3)C2 (stereo not shown) [Compound D358] | < 10
26 | COc1cc(-c2cn(C)c(=O)c(C)c2C)cc(OC)c1CN1CC(CN2CCC3(CC2)CN(c2ccc4c(c2)C(=O)N(C2CCC(=O)NC2=O)C4=O)C3)C1 (stereo not shown) [Compound D345] | < 10
27 | COc1cc(-c2cn(C)c(=O)c3cnccc23)cc(OC)c1CN(C)CC(=O)NCCCCCOc1ccc(-c2ccc3c(c2)C(=O)N(C2CCC(=O)NC2=O)C3=O)cc1 (stereo not shown) [DD8] | < 10
28 | COc1cc(-c2cn(C)c(=O)c3ccnnc23)cc(OC)c1CN1CCC(CN2CCC3(CC2)CC(Oc2ccc4c(c2)CN(C2CCC(=O)NC2=O)C4=O)C3)CC1 (stereo not shown) [Compound D366] | < 10
29 | COc1cc(-c2cn(C)c(=O)c3cnccc23)cc(OC)c1CN(C)C(=O)CCCCNC1CC2(CCN(c3ccc4c(c3)C(=O)N(C3CCC(=O)NC3=O)C4=O)CC2)C1 (stereo not shown) [Compound D256] | < 10
30 | COc1cc(-c2cc(C)c(=O)n(C)c2)cc(OC)c1CN1CCC2(CC1)CN(c1ccc3c(c1)C(=O)N(C1CCC(=O)NC1=O)C3=O)C2 (stereo not shown) [Compound D331] | < 10

Same assay, conditions: Table 5C; SYO-1 cells expressing 3×FLAG-NLuc-BRD9, 6 hours; read-out: SYO1 BRD9-NanoLuc degradation IC50

Row | DC50 [nM] | SMILES
31 | < 10 | COc1cc(-c2cn(C)c(=O)c3cnccc23)cc(OC)c1CN1CC(Oc2ccc3c(c2)C(=O)N(C2CCC(=O)NC2=O)C3)C1 (stereo not shown) [Compound D378]
32 | < 10 | COc1cc(-c2cn(C)c(=O)c3cnccc23)cc(OC)c1CN1CC(Oc2ccc3c(c2)C(=O)N(C2CCC(=O)NC2=O)C3=O)C1C (stereo not shown) [Compound D376]
33 | < 10 | CCc1cc(-c2cn(C)c(=O)c3cnccc23)cc(OC)c1CN1CC(Oc2ccc3c(c2)C(=O)N(C2CCC(=O)NC2=O)C3=O)C1C (stereo not shown) [Compound D386]
34 | < 10 | COc1cc(-c2cn(C)c(=O)c3cnccc23)cc(OC)c1CN1CC(Oc2ccc3c(c2)C(=O)N(C2CCC(=O)N(COC(=O)[C@@H](N)C(C)C)C2=O)C3=O)C1 (stereo partly shown) [Compound D381]

The next lines start with the compound.

Row | SMILES | DC50 [nM]
35 | CCn1cc2c(=O)n(C)cc(-c3cc(OC)c(CN4CCC5(CC4)CN(c4ccc6c(c4)C(=O)N(C4CCC(=O)NC4=O)C6)C5)c(OC)c3)c2n1 (stereo not shown) [Compound D417] | < 10
36 | COc1cc(-c2cc(C(F)F)c(=O)n(C)c2)cc(OC)c1CN1CCC2(C1)CN(c1ccc3c(c1)C(=O)N(C1CCC(=O)NC1=O)C3)C2 (stereo not shown) [Compound D403] | < 10
37 | [2H]C([2H])([2H])n1cc(-c2cc(OC)c(CN3[C@H](C)CN(c4ccc5c(c4)C(=O)N(C4CCC(=O)NC4=O)C5)C[C@H]3C)c(OC)c2)c2nn(C)cc2c1=O (stereo partly shown) [Compound D424] | < 10
38 | COc1cc(-c2cn(C)c(=O)c(C)n2)cc(OC)c1CN1CCC2(CC1)CN(c1ccc3c(c1)C(=O)N(C1CCC(=O)NC1=O)C3)C2 (stereo not shown) [Compound D461] | 10 to 100
39 | C/C=C/Cn1cc(-c2cc(OC)c(CN3CCC4(CC3)CN(c3ccc5c(c3)C(=O)N(C3CCC(=O)NC3=O)C5)C4)c(OC)c2)n2cncc2c1=O (stereo not shown) [Compound D454] | < 10
40 | COc1cc(-c2cn(C)c(=O)cc2C)cc(OC)c1CN1CCN(c2ccc3c(c2)C(=O)N(C2CCC(=O)NC2=O)C3=O)CC1 (stereo not shown) [Compound D436] | < 10
41 | COc1cc(-c2cc(C(F)F)c(=O)n(C)c2C)cc(OC)c1CN1CCC2(C1)CN(c1ccc3c(c1)C(=O)N(C1CCC(=O)NC1=O)C3)C2 (stereo not shown) [Compound D409] | < 10
42 | COc1cc(-c2cn(C)c(=O)c3cnccc23)cc(OC)c1CN1CCC2(CC1)CN(c1ccc3c(c1)C(=O)N(C1CC(=O)NC(=O)C1)C3)C2 [Compound D474] | > 1000
43 | COc1cccc(OC)c1CN1CCN(c2ccc3c(c2)C(=O)N(C2CCC(=O)NC2=O)C3)CC1 (stereo not shown) [DD14] | > 1000
44 | COc1cc(-c2cc(C(F)F)c(=O)n(C)c2)cc(OC)c1CN1CCC(C#Cc2ccc3c(c2)C(=O)N(C2CCC(=O)NC2=O)C3)CC1 (stereo not shown) [Compound D444] | < 10
45 | COc1cc(-c2cn(C)c(=O)c3cn(C)nc23)cc(OC)c1CN1CCC2(CC1)CN(c1ccc3c(c1)CN(C1CCC(=O)NC1=O)C3=O)C2 (stereo not shown) [Compound D412] | < 10
46 | COc1cc(-c2cn(C)c(=O)c3[nH]cnc23)cc(OC)c1CN1CCC2(CC1)CN(c1ccc3c(c1)C(=O)N(C1CCC(=O)NC1=O)C3)C2 (stereo not shown) [Compound D434] | < 10
